These results are taken from US4103005A, “Novel-enkephalin analogs” (Hoffmann-La Roche Inc., priority 1977, dated 1978).

Assay [1] concerns male ICR mice. The assay is described as follows: Analgesic assay by the tail-flick method in mice. The following applies: for Tail-flick inhibition after intravenous injection: 1.1 to 8.5 mg/kg injected intravenously; for Effect of naloxone pretreatment on inhibition of the tail-flick response: Naloxone HCl 3 mg/kg subcutaneously 5 min before the analog; for Tail-flick inhibition after central application: doses 0.17 to 0.85 μg (D-Met analog) and 0.011 to 0.085 μg (D-Thr analog); for Intracerebroventricular AD50 (median antinociceptive dose) / Intracerebroventricular potency ratio / Intravenous AD50 (median antinociceptive dose) / Intravenous potency ratio: mice; for Intracerebroventricular AD50 (median antinociceptive dose): intracerebroventricular (central) injection; for Intracerebroventricular AD50 (median antinociceptive dose) / Intravenous AD50 (median antinociceptive dose): tail-flick; for Intracerebroventricular potency ratio / Intravenous potency ratio: relative to morphine sulfate = 1, molar basis; for Intravenous AD50 (median antinociceptive dose): intravenous injection via tail vein; for Analgesic activity (summary statement): mouse, in vivo. It counts as in vivo. As for the experimental part: For analgesic assay, male ICR mice weighing 25-30 g were used in all the experiments. The enkephalin analogs dissolved in saline were administered either centrally according to the method described by Haley and McCormick, Br. J. Pharmacol, 12, 12 (1957) or intravenously via the tail vein. The injection volume is 5 μl for central injection and 10 μl per gram body weight for intravenous injection. Naloxone HCl (3 mg/kg) was injected subcutaneously 5 min before the administration of enkephalin analogs. Analgesic activity was assayed by the tail-flick method of D'Amour and Smith, J. Pharmacol, Exp. Ther. 72, 74 (1941).
The percent of analgesia was calculated as [(T1 -T0)/(T2 -T0)] × 100, where a control latency (T0) was obtained from the mean of two latencies determined before drug injection; the test latencies (T1) were determined at various times after injection for each animal; the cutoff time (T2) for the tail-flick was 7 seconds. The median analgesic dose (AD50) and 95% confidence limits were calculated according to the method of Litchfield and Wilcoxon, J. Pharacol. Exp. Ther. 96, 99 (1949). The locomotor activity to the mice was measured with an electronic Fe 40 motility meter (Motron Produkter, Stockholm, Sweden). The detail of the experimental method has been described by Tseng et al., Nature (London) 263, 239 (1976).
A general note: Thermal pain tests record how soon the animal reacts.

The conditions of assay [2]: cited from earlier work; for Analgesic activity reported in the literature: in vivo.
Assay [3] concerns male ICR mice. The following applies: cited from earlier work.

Where a SMILES comes first, the peptide text is derived from it. [ ]: non-standard residue; d: D form. Thz = O=C(O)[C@@H]1CSCN1

Turning to `CSCC[C@@H](NC(=O)[C@@H](N)Cc1ccc(O)cc1)C(=O)NCC(=O)N[C@@H](Cc1ccccc1)C(=O)N1CSC[C@H]1C(N)=O` [D-Met^2,Thz^5 -Enkephalinamide, H-Tyr-D-Met-Gly-Phe-Thz-NH2] (H-Y[dM]GF[Thz]-NH2), in the assay with male ICR mice [1], the “Tail-flick inhibition after intravenous injection” value is “active in inhibiting the tail-flick response”, the “Effect of naloxone pretreatment on inhibition of the tail-flick response” value was “blocked by the pretreatment of naloxone”, the “Intracerebroventricular AD50 (median antinociceptive dose)” value (shortened to “Intracerebroventricular AD50”) worked out at 0.145 nmole/mouse and the Intracerebroventricular potency ratio came out at 7.7. Moreover, in the assay on male ICR mice [1], the “Intravenous AD50 (median antinociceptive dose)” value (“Intravenous AD50” for short) came out at 2.71 µmol/kg, the Intravenous potency ratio came to 4.2 and the “Analgesic activity (summary statement)” value is given as “potent analgesic agents”. Moreover, in the assay with male ICR mice [1] (applied centrally), the “AD50, times higher than [D-Thr^2,Thz^5 ]-enkephalinamide” value is on record as 3.5 times; the “Tail-flick inhibition after central application” value is “dose-related increase in intensity and duration of the tail-flick inhibition”.

Consider `C[C@H](O)[C@@H](NC(=O)[C@@H](N)Cc1ccc(O)cc1)C(=O)NCC(=O)N[C@@H](Cc1ccccc1)C(=O)N1CSC[C@H]1C(N)=O` [D-Thr^2,Thz^5 -Enkephalinamide, H-Tyr-D-Thr-Gly-Phe-Thz-NH2] (H-Y[dT]GF[Thz]-NH2), for which, in the assay with male ICR mice [1], the “Tail-flick inhibition after intravenous injection” value is “active in inhibiting the tail-flick response”, the “Effect of naloxone pretreatment on inhibition of the tail-flick response” value is reported as “blocked by the pretreatment of naloxone”, the “Intracerebroventricular AD50” value came out at 0.04 nmole/mouse and the Intracerebroventricular potency ratio is 27.1. For the same molecule, in the assay on male ICR mice [1], the “Intravenous AD50” value stood at 2.40 µmol/kg, the Intravenous potency ratio was 4.8 and the “Analgesic activity (summary statement)” value is recorded as “potent analgesic agents”. Besides, in the assay with male ICR mice [1] (applied centrally), the “Potency, times more potent than [D-Met^2, Thz^5 ]-enkephalinamide” value is 3.5 times; the “Tail-flick inhibition after central application” value is “dose-related increase in intensity and duration of the tail-flick inhibition”. The Duration of analgesia result with male ICR mice [1] (intravenous injection) is “longer than that produced by [D-Met^2,Thz^5 ]-enkephalinamide”.

Take `CN1CC[C@]23c4c5ccc(O)c4O[C@H]2[C@@H](O)C=C[C@H]3[C@H]1C5.O=S(=O)(O)O` [Morphine sulfate, reference compound]: in the assay with male ICR mice [1], the “Intracerebroventricular AD50” value was 1.11 nmole/mouse and the “Intravenous AD50” value turned out to be 11.4 µmol/kg.

For “D-Ala^2, MePhe^4, Met-O^5 -ol enkephalin”, the “Analgesic activity reported in the literature” value in assay [2] was “most potent analgesic of the group”. The “Oral activity reported in the literature” value in assay [2] (oral) was “orally active”.

Take “D-Ala^2,D-Leu^5 -Enkephalin [reference compound]”: in the assay with male ICR mice [1], the “Intracerebroventricular AD50” value turned out to be 0.035 nmole/mouse and the Intracerebroventricular potency ratio is given as 31.7.

Regarding Met-enkephalin [reference compound], in the assay with male ICR mice [1], the “Intracerebroventricular AD50” value was > 174 nmole/mouse, the Intracerebroventricular potency ratio is listed as < 0.006, the “Intravenous AD50” value was > 60 µmol/kg and the Intravenous potency ratio is given as < 0.19.

[D-Met^2, Pro^5 ]-enkephalinamide: the “Analgesic activity reported in the literature” value in assay [2] is “potent analgesic agent”.

For the molecule “βc -Endorphin (YGGFMTSEKSQTPLVTLFKNAIIKNAHKKGQ; Beta-endorphin; UniProt P01203 1-31, looked up) [reference compound]”, the “Locomotor activity (previously shown)” value with male ICR mice [3] is reported as “stimulate locomotor activity weakly or not at all”. Moreover, in the assay on male ICR mice [1], the “Intracerebroventricular AD50” value is 0.032 nmole/mouse, the Intracerebroventricular potency ratio is 34.7, the “Intravenous AD50” value amounted to 2.7 µmol/kg and the Intravenous potency ratio came out at 4.2.
